Experimental data from patent US12029796B2, “Fluorescent probes for silver ION detection” (THE HONG KONG UNIVERSITY OF SCIENCE AND TECHNOLOGY, priority 2017, dated 2024).
Like-named read-outs stand apart in the source and are kept apart here.

What was measured:
[1] = Fluorescent quantum yield in solid state and in solution; format: physicochemical; conditions: solid state
Method: (§1) The present compounds are strongly emissive in the solid state with good fluorescent quantum yields. The compounds are weakly emissive or non-emissive when dissolved in aqueous solutions. […] In contrast, when these compounds are dissolved, the solutions only emit faint light (Qy<1%). The compounds dissolve well in alcohols. The compounds can be modestly dissolved (for TPE-4TTZ, up 100 μM in DI-water) in the aqueous phase. Furthermore by the addition of NaOH solutions, the formed salts dissolve well in the aqueous phase (for TPE-4TTZ, up to 1 M in water).

[2] = Fluorescence turn-on sensing and titration of silver ions; conditions: for ratio [Ag^+]:[probe] at which PL intensity is saturated / maximum: probe 5 μM; for LOD (limit of detection) of silver ions / Linear Range of silver ion detection: probe 5 μM in DI-water, excitation 345 nm
Excerpt: The turn-on fluorescence response was instant. The detection of silver ions was highly sensitive and sharp intensity changes could be detected with the naked eye. DLS (Dynamic light scattering) measurement confirmed the formation of nanoparticles. […] This is likely due to the reduction of silver-tetrazole complexes by the strong electron-beam during TEM studies. These emissive silver-compound solid complexes are hardly soluble in a range of solvents, including DMSO, methanol, and water. NMR analysis of these complexes is not possible. The complexes are also resistant to acid/base treatment, or heating by a heat-gun.
In fluorescence spectroscopy, solutions containing silver ions behaved quite differently from solutions without silver ions in terms of intensity, with the ratio of intensity at maximum peak at 504 nm exceeding 400 times (FIGS. 3A-3D). […] By plotting the intensity of maximum intensive peaks against the ratio of ion concentrations, it was expected that the working curve for the quantitative detection of silver ions could be established. […] Meanwhile, the detection limit (LOD) of silver ions is estimated to be 40 nM (S/N=3 and n=11). With a further increase of [Ag^+], the intensity reaches a plateau.
Tetrazole-tagged AIE luminogen TPE-4TTZ (5 μM) undergoes a fluorescence turn-on response towards a solution of silver ions. The solutions can include organic solutions, aqueous solutions including natural water, wastes and/or biological buffer solutions. PL spectra were recorded on a Perkin-Elmer LS 55 spectrofluorometer.
The solutions included organic solutions, aqueous solutions including natural water, wastes and/or biological buffer solutions. For the same probes, the calibration curve varied a little in different solutions. UV spectra were measured on a Biochrom Libra S80PC double beams spectrometer. PL spectra were recorded on a Perkin-Elmer LS 55 spectrofluorometer.

[3] = Solubility in the aqueous phase; format: physicochemical
Method: as §1

[4] = Selectivity: fluorescence response to mercury ions
Excerpt: (§2) As selectivity is an important parameter for sensing technique, responses of these probes to other metal ions were examined. […] Mercury is reported to coordinate with the tetrazole group.
The Ag^+/Hg^2+ coordination-induced fluorescence can be pH-sensitive. For example, with respect to TPE-4TTZ, a series of tests were done in phosphate buffer solutions at different pH varying from 4 to 12. At pH lower than 4, the tetrazole moiety (pKa˜4-5) was largely in the protonated form and sparingly soluble in solution and, thus, aggregated. The aggregation elicited fluorescence with a different color from that of the silver complexes. Therefore, the turn-on detection is only possible in solutions with pH>4. […] Furthermore regarding the mercury detection, the FL response was significant only at the pH window (4˜7); when pH>8, the fluorescence turn-on was not observed anymore. […]
With reference to FIG. 7, tetrazole-tagged AIE luminogen TPE-4TTZ (10 μM) underwent a fluorescence turn-on response towards a solution of silver ions in the presence of other metal ions in phosphate aqueous solution (10 mM, pH 7.4). PL spectra were recorded on a Perkin-Elmer LS 55 spectrofluorometer. Tetrazole-tagged AIE luminogen TPE-4TTZ (10 μM) underwent a fluorescence turn-on response towards a solution of silver ions in the presence of other silver-binding molecules in phosphate aqueous solution (10 mM, pH 7.4). […]

[5] = Selectivity: fluorescence response to other metal ions
Method: as §2
With reference to FIG. 7, tetrazole-tagged AIE luminogen TPE-4TTZ (10 μM) underwent a fluorescence turn-on response towards a solution of silver ions in the presence of other metal ions in phosphate aqueous solution (10 mM, pH 7.4). PL spectra were recorded on a Perkin-Elmer LS 55 spectrofluorometer. Tetrazole-tagged AIE luminogen TPE-4TTZ (10 μM) underwent a fluorescence turn-on response towards a solution of silver ions in the presence of other silver-binding molecules in phosphate aqueous solution (10 mM, pH 7.4). In each example, the silver-binding molecule was added prior to the addition of the probes from a stock solution. The stock solution of the probe is 1 mM in ethanol. PL spectra were recorded on a Perkin-Elmer LS 55 spectrofluorometer.

[6] = pH dependence of Ag^+ induced fluorescence in phosphate buffer; conditions: phosphate buffer solutions
Excerpt: The Ag^+/Hg^2+ coordination-induced fluorescence can be pH-sensitive. For example, with respect to TPE-4TTZ, a series of tests were done in phosphate buffer solutions at different pH varying from 4 to 12. At pH lower than 4, the tetrazole moiety (pKa˜4-5) was largely in the protonated form and sparingly soluble in solution and, thus, aggregated. The aggregation elicited fluorescence with a different color from that of the silver complexes. Therefore, the turn-on detection is only possible in solutions with pH>4. When pH is from 5˜6, PL response is significant enough for a high resolution detection of silver ions. […] Furthermore regarding the mercury detection, the FL response was significant only at the pH window (4˜7); when pH>8, the fluorescence turn-on was not observed anymore. Thus, TPE-4TTZ is only sensitive to silver ions in basic solutions. Similar observations were made for the other tetrazole-tagged TPEs.

[7] = Interference of silver-binding reagents with silver sensing; conditions: TPE-4TTZ 5 μM, anions 100 equiv.
Method: Detection can be based on selective coordination involving electrostatic interactions. Tests were conducted to determine whether silver binding moieties (e.g., anions) might be another kind of interfering factor in the mixture. […] After a short while of shaking, the probe (10 eq.) was added. Each solution was gently mixed and then checked in a PL machine. Compared with the control group, the interfering reagents including amino acids and DNA/RNA bases were only weakly interfering with the silver-tetrazole sensing process. In other words, the tetrazole anions can snatch silver ions from these ligands and elicit a fluorescence turn-on. There were exceptions, in particular for strong silver-interacting structures. Cysteine, the sulfur-containing amino acid, blocked sensing by the strong S—Ag interaction. Similar results were seen from SCN^− and S2O3^2-, due to their stronger binding affinity towards Ag^+ than the tetrazole anion (CN4^−). In addition, ammonium solution blocked sensing by reducing Ag^+ into metallic silver.
With reference to FIG. […] PL spectra were recorded on a Perkin-Elmer LS 55 spectrofluorometer. […] In each example, the silver-binding molecule was added prior to the addition of the probes from a stock solution. The stock solution of the probe is 1 mM in ethanol. PL spectra were recorded on a Perkin-Elmer LS 55 spectrofluorometer.

[8] = cited from earlier work
[9] = phosphate aqueous solution 10 mM, pH 7.4

Row | Structure (SMILES) | fluorescent quantum yield (Qy) [1] [%] | ratio [Ag^+]:[probe] at which PL intensity is saturated / maximum [2] | LOD (limit of detection) of silver ions [2] [nM] | Linear Range of silver ion detection [2] | solubility ([3]; deionised water, DI-water, read-out: solubility in the aqueous phase) [mM] | solubility ([3]; water with added NaOH solution, aqueous buffer, water, after addition of NaOH solution, read-out: solubility of the formed salt in the aqueous phase) [mM] | fluorescence response on addition of silver ions ([2]; TPE-4TTZ 5 μM, silver ions 500 μM, UV 350 nm) | PL response to mercury ions [4, 9] | pH window with significant FL response to mercury ([4]; phosphate buffer solutions, pH 4 to 12) | PL response to Mg^2+, Mn^2+, Zn^2+, Al^3+ etc. [5, 9] | effect of Fe^2+, Fe^3+, Co^2+ and Cu^2+ on fluorescence ([5]; same conditions) | pH at which maximum PL response to silver is relatively stable [6] | pH at which turn-on detection of silver is possible ([6]; pH 4 to 12) | fluorescence on mixing with different anions without Ag^+ [7] | pKa of tetrazole moiety [8]
1 | c1ccc(C(=C(c2ccccc2)c2ccc(-c3nnn[nH]3)cc2)c2ccccc2)cc1 [TPE-1TTZ] | 39.6 | 0.6 | 1.5 | 0.1~3 μM |  |  |  |  |  |  |  |  |  |  | 
2 | c1ccc(C(=C(c2ccc(-c3nnn[nH]3)cc2)c2ccc(-c3nnn[nH]3)cc2)c2ccccc2)cc1 [TPE-2TTZ] | 36.2 | 2.6 | 3.0 | 0.2~10 μM |  |  |  |  |  |  |  |  |  |  | 
3 | c1cc(-c2nnn[nH]2)ccc1C(=C(c1ccc(-c2nnn[nH]2)cc1)c1ccc(-c2nnn[nH]2)cc1)c1ccc(-c2nnn[nH]2)cc1 [TPE-4TTZ] | 76.8 | ~4 | 2.3 | 0.04~15 μM | ≤ 0.1 | ≤ 1000 | highly emissive | significant enhancement of PL intensity | 4˜7 | hardly increased the PL intensity | quench the weak fluorescence | > 6 | > 4 | did not generate strong fluorescence | 4-5
